Literature values, collected in patent EP3663750B1, “SCAFFOLDED NUCLEIC ACID POLYMER PARTICLES AND METHODS OF MAKING AND USING” (Life Technologies Corporation, priority 2009, dated 2010).
Where two headings read alike, the source gives them in different places.

[1] = Oil Soluble Azo Initiator Compounds, temperature at which the initiator has a half-life of 10h
[2] = Water Soluble Azo Initiator Compounds, temperature at which the initiator has a half-life of 10h

Compound | 10 hour half-life decomposition temperature [1] | other results
N#CC1(N=NC2(C#N)CCCCC2)CCCCC1 | 88 °C | 
CC(C)(N=NC(C)(C)C1=NCCN1)C1=NCCN1 [drawing 1] |  | 10 hour half-life decomposition temperature (buffer): 44 °C
CC(C)CC(C)(C#N)N=NC(C)(C#N)CC(C)C (centres unmarked) | 51 °C | 
CC(C)(N=NC(C)(C)C(=O)NC1CCCCC1)C(=O)NC1CCCCC1 | 111 °C | 
CC(C)(N=NC(C)(C)C1=NCCN1)C1=NCCN1 [drawing 6] |  | 10 hour half-life decomposition temperature (buffer): 61 °C
CC(C)(N=NC(C)(C)C(=N)N1CCCC1)C(=N)N1CCCC1 |  | 10 hour half-life decomposition temperature [2]: 67 °C
CC(C)(N=NC(C)(C)C1=NCCN1CCO)C1=NCCN1CCO |  | 10 hour half-life decomposition temperature [2]: 60 °C
C=CCNC(=O)C(C)(C)N=NC(C)(C)C(=O)NCC=C | 96 °C | 
CCCCNC(=O)C(C)(C)N=NC(C)(C)C(=O)NCCCC | 110 °C | 
CCC(C)(C#N)N=NC(C)(C#N)CC (centres unmarked) | 67 °C | 
CC(C)(N=NC(C)(C)C(=O)NCCO)C(=O)NCCO |  | 10 hour half-life decomposition temperature [2]: 87 °C
